Values quoted from earlier work in patent US20220225611A1, “NON-NATURAL INSECT PHEROMONE BLEND COMPOSITIONS” (Provivi, Inc., priority 2019, published 2022).

Key:
C. suppressalis = conditions: Chen et al. (2018)
S. incertulas = conditions: Cork & Souza (1996)

| Compound | effect on attractiveness of a pheromone mixture (C. suppressalis) | effect of presence in a pheromone blend on mating disruption (S. incertulas) |
| --- | --- | --- |
| CCCCCCCC/C=C\CCCCCCCC=O [Z9-18Ald, (Z)-9-Octadecenal] | reduces the attractiveness |  |
| CCCC/C=C\CCCCCCCCCCCC=O [Z13-18Ald, (Z)-13-Octadecenal] |  | not be produce increased mating disruption |
